# Laboratory results taken from US10219516B2, “Molecules having pesticidal utility, and intermediates, compositions, and processes, related thereto” (priority 2015, dated 2019).
# Like-named read-outs stand apart in the source and are kept apart here.
# How the values were obtained:
# [1] = tested on: Beet Armyworm (Spodoptera exigua, LAPHEG); assay: Bioassay on Beet Armyworm (BAW), 128-well diet tray assay; assay type: in vivo
# Procedure: (§1) Certain molecules disclosed in this document were tested against BAW and CL using procedures described in the following examples. In the reporting of the results, the “BAW & CL Rating Table” was used (See Table Section).
# Bioassays on BAW were conducted using a 128-well diet tray assay. One to five second instar BAW larvae were placed in each well (3 mL) of the diet tray that had been previously filled with approximately 1.5 mL of artificial diet to which 50 μg/cm^2 of the test molecule (dissolved in 50 μL of 90:10 acetone-water mixture) had been applied (to each of eight wells) and then allowed to dry. Trays were covered with a clear self-adhesive cover, vented to allow gas exchange, and held at 25° C., 14:10 light-dark for five to seven days. Percent mortality was recorded for the larvae in each well; activity in the eight wells was then averaged. The results are indicated in the table entitled “Table ABC: Biological Results” (See Table Section).
# [2] = tested on: Cabbage Looper (Trichoplusia ni, TRIPNI); assay: Bioassay on Cabbage Looper (CL), 128-well diet tray assay; assay type: in vivo; conditions: for pest or weed control at 50 µg/cm2: Trichoplusia ni
# Procedure: as §1
# Bioassays on CL were conducted using a 128-well diet tray assay. one to five second instar CL larvae were placed in each well (3 mL) of the diet tray that had been previously filled with 1 mL of artificial diet to which 50 μg/cm^2 of the test molecule (dissolved in 50 μL of 90:10 acetone-water mixture) had been applied (to each of eight wells) and then allowed to dry. Trays were covered with a clear self-adhesive cover, vented to allow gas exchange, and held at 25° C., 14:10 light-dark for five to seven days. Percent mortality was recorded for the larvae in each well; activity in the eight wells was then averaged. The results are indicated in the table entitled “Table ABC: Biological Results” (See Table Section).
# [3] = Species BAW (Beet Armyworm), read-out: BAW (Biological Results, rating)
# [4] = Species CL (Cabbage Looper), read-out: CL (Biological Results, rating)
# [5] = Beet Armyworm, 128-well diet tray assay, read-out: BAW rating
# [6] = Cabbage Looper, 128-well diet tray assay, read-out: CL rating
compound,measurement,setting,value
"N#Cc1ccc(NC(=O)c2cc(NC(=O)[C@H]3[C@H](c4cc(Cl)cc(Cl)c4)C3(Cl)Cl)ccc2Cl)cc1 (relative stereo) [F5, trans-2-Chloro-N-(4-cyanophenyl)-5-(2,2-dichloro-3-(3,5-dichlorophenyl)cyclopropane-1-carboxamido)benzamide]",pest or weed control at 50 µg/cm2,[1]; [3],50 to 100%
same,pest or weed control at 50 µg/cm2,[2]; [4],50 to 100%
"CSc1nc(NC(=O)c2cc(NC(=O)[C@H]3[C@H](c4cc(Cl)cc(Cl)c4)C3(Cl)Cl)ccc2Cl)n[nH]1 (relative stereo) [F184, trans-2-Chloro-5-(2,2-dichloro-3-(3,5-dichlorophenyl)cyclopropane-1-carboxamido)-N-(5-(methylthio)-1H-1,2,4-triazol-3-yl)benzamide]",pest or weed control at 50 µg/cm2,[2]; [4],50 to 100%
"Cc1cc(N(C)C(=O)OC(C)(C)C)ccc1NC(=O)c1cc(NC(=O)[C@H]2[C@H](c3ccc(F)c(Cl)c3)C2(Cl)Cl)ccc1Cl (relative stereo) [F219, trans-tert-Butyl-(4-(2-chloro-5-(2,2-dichloro-3-(3-chloro-4-fluorophenyl)cyclopropane-1-carboxamido)benzamido)-3-methylphenyl)(methyl)carbamate]",pest or weed control at 50 µg/cm2,[1]; [3],50 to 100%
"CNc1ccc(NC(=O)c2cc(NC(=O)[C@H]3[C@H](c4cc(Cl)cc(Cl)c4)C3(Cl)Cl)c(Cl)cc2Cl)cc1 (relative stereo) [F256, trans-2,4-dichloro-5-(2,2-dichloro-3-(3,5-dichlorophenyl)cyclopropane-1-carboxamido)-N-(4-(methylamino)phenyl)benzamide]",pest or weed control at 50 µg/cm2,[1]; [3],0 to 50%
"CC(C)(C)OC(=O)N(C(=O)OC(C)(C)C)c1c(F)ccc(NC(=O)c2cc(NC(=O)[C@H]3[C@H](c4cc(Cl)cc(Cl)c4)C3(Cl)Cl)ccc2Cl)c1F (relative stereo) [F468, trans-tert-Butyl-N-((tert-butoxy)carbonyl)-N-(3-(2-chloro-5-(2,2-dichloro-3-(3,5-dichlorophenyl)cyclopropane-1-carboxamido)benzamido)-2,6-difluorophenyl)carbamate]",pest or weed control at 50 µg/cm2,[1]; [5],0 to 50%
"CC(C)(C)OC(=O)N1CCc2cc(NC(=O)c3cc(NC(=O)[C@H]4[C@H](c5cc(Cl)cc(Cl)c5)C4(Cl)Cl)ccc3Cl)ccc21 (relative stereo) [F509, tert-Butyl 5-(2-chloro-5-(trans)-(2,2-dichloro-3-(3,5-dichlorophenyl)cyclopropane-1-carboxamido)benzamido)indoline-1-carboxylate]",pest or weed control at 50 µg/cm2,[1]; [5],0 to 50%
"CC(C)(C)OC(=O)N(C(=O)OC(C)(C)C)c1c(F)ccc(NC(=O)c2cc(NC(=O)[C@H]3[C@H](c4cc(Cl)cc(C#N)c4)C3(Cl)Cl)ccc2Cl)c1F (relative stereo) [F515, trans-tert-Butyl-N-((tert-butoxy)carbonyl)-N-(3-(2-chloro-5-(2,2-dichloro-3-(3-chloro-5-cyanophenyl)cyclopropane-1-carboxamido)benzamido)-2,6-difluorophenyl)carbamate]",pest or weed control at 50 µg/cm2,[2]; [6],50 to 100%
"CCc1cc(C(F)(C(F)(F)F)C(F)(F)C(F)(F)F)cc(CC)c1NC(=O)c1cc(NC(=O)[C@H]2[C@H](c3cc(Cl)cc(Cl)c3)C2(Cl)Cl)ccc1Cl (relative stereo) [PF59, trans-2-Chloro-5-(2,2-dichloro-3-(3,5-dichlorophenyl)cyclopropane-1-carboxamido)-N-(2,6-diethyl-4-(perfluorobutan-2-yl)phenyl)benzamide]",pest or weed control at 50 µg/cm2,[1]; [5],0 to 50%
"CCc1cc(C(F)(C(F)(F)F)C(F)(F)F)cc(CC)c1NC(=O)c1cc(NC(=O)[C@H]2[C@H](c3cc(Cl)cc(Cl)c3)C2(Cl)Cl)ccc1Cl (relative stereo) [PF61, trans-2-Chloro-5-(2,2-dichloro-3-(3,5-dichlorophenyl)cyclopropane-1-carboxamido)-N-(2,6-diethyl-4-(perfluoropropan-2-yl)phenyl)benzamide]",pest or weed control at 50 µg/cm2,[1]; [5],0 to 50%
"Cc1cc(N(C)C(=O)OC(C)(C)C)ccc1N(C)C(=O)c1cc(NC(=O)C2C(c3cc(Cl)c(Cl)c(Cl)c3)C2(Cl)Cl)ccc1Cl [F221, trans-tert-Butyl-(4-(2-chloro-5-((1R,3R)-2,2-dichloro-3-(3,4,5-trichlorophenyl)cyclopropane-1-carboxamido)-N-methylbenzamido)-3-methylphenyl)(methyl)carbamate]",pest or weed control at 50 µg/cm2,[1]; [3],50 to 100%
"CC1(c2cc(Cl)cc(Cl)c2)C(C(=O)Nc2ccc(Cl)c(C(=O)Nc3ccc(F)cc3)c2)C1(Cl)Cl (stereo not drawn) [F253, 2-Chloro-5-cis-2,2-dichloro-3-(3,5-dichlorophenyl)-3-methylcyclopropane-1-carboxamido)-N-(4-fluorophenyl)benzamide]","CL (Biological Results, rating)",[2]; Species CL (Cabbage Looper),A (50-100)
"CC(C)(C)OC(=O)N(C(=O)OC(C)(C)C)c1c(F)ccc(NC(=O)c2cc(NC(=O)[C@H]3[C@H](c4cc(Cl)cc(Cl)c4)C3(Cl)Cl)ccc2Cl)c1F [F499, tert-Butyl-N-((tert-butoxy)carbonyl)-N-(3-(2-chloro-5-((1R,3R)-2,2-dichloro-3-(3,5-dichlorophenyl)cyclopropane-1-carboxamido)benzamido)-2,6-difluorophenyl)carbamate]",pest or weed control at 50 µg/cm2,[1]; [5],50 to 100%
"CC(C)(C)OC(=O)N(C(=O)OC(C)(C)C)c1c(F)ccc(NC(=O)c2cc(NC(=O)[C@H]3[C@H](c4cc(Cl)c(Cl)c(Cl)c4)C3(Cl)Cl)ccc2Cl)c1F [F501, tert-Butyl-N-((tert-butoxy)carbonyl)-N-(3-(2-chloro-5-((1R,3R)-2,2-dichloro-3-(3,4,5-trichlorophenyl)cyclopropane-1-carboxamido)benzamido)-2,6-difluorophenyl)carbamate]",pest or weed control at 50 µg/cm2,[1]; [5],0 to 50%
"CC(C)(C)OC(=O)N(C(=O)OC(C)(C)C)c1c(F)ccc(NC(=O)c2cc(NC(=O)C3C(c4cc(Cl)cc(Br)c4)C3(Cl)Cl)ccc2Cl)c1F (stereo not drawn) [F514, tert-Butyl-N-((tert-butoxy)carbonyl)-N-(3-(5-(3-(3-bromo-5-chlorophenyl)-2,2-dichlorocyclopropane-1-carboxamido)-2-chlorobenzamido)-2,6-difluorophenyl)carbamate]",pest or weed control at 50 µg/cm2,[1]; [5],50 to 100%
"CC(C)(C)OC(=O)N(C(=O)OC(C)(C)C)c1c(F)cc(F)cc1NC(=O)c1cc(NC(=O)[C@H]2[C@H](c3cc(Cl)cc(Cl)c3)C2(Cl)Cl)ccc1Cl [F521, tert-Butyl-N-((tert-butoxy)carbonyl)-N-(2-(2-chloro-5-((1R,3R)-2,2-dichloro-3-(3,5-dichlorophenyl)cyclopropane-1-carboxamido)benzamido)-4,6-difluorophenyl)carbamate]",pest or weed control at 50 µg/cm2,[2]; [6],0 to 50%
"C=Cc1cc(Cl)cc(C2C(C(=O)Nc3ccc(Cl)c(C(=O)Nc4ccc(F)c(N(C(=O)OC(C)(C)C)C(=O)OC(C)(C)C)c4F)c3)C2(Cl)Cl)c1 (stereo not drawn) [F523, tert-Butyl-N-((tert-butoxyl)carbonyl)-N-(3-(2-chloro-5-(2,2-dichloro-3-(3-chloro-5-vinylphenyl)cyclopropane-1-carboxamido)benzamido)-2,6-difluorophenyl)carbamate]",pest or weed control at 50 µg/cm2,[1]; [5],0 to 50%
"O=C(Nc1cc(Cl)c(Cl)c(Cl)c1)c1cc(NC(=O)C2C(c3cc(Cl)cc(Cl)c3)C2(Cl)Cl)ccc1Cl (stereo not drawn) [PF119, 2-Chloro-5-(trans)-2,2-dichloro-3-(3,5-dichlorophenyl)cyclopropane-1-carboxamido)-N-(3,4,5-trichlorophenyl)benzamide]",pest or weed control at 50 µg/cm2,[1]; [5],50 to 100%
